Assay results published in patent publication US6261826A, “Antibiotic TKR2648 and process for producing the same” (Takara Shuzo Co., Ltd., priority 1996, dated 2001).
≈ marks a conversion by molar mass, not a printed value. Entries after “also recorded” stand apart in the source; their conditions may differ.

Key:
B16 melanoma cells [1] = assay: Cytotoxicity to B16 melanoma cells, alamarblue-method; format: cell-based
Procedure: (§1) Effect of the above TKR2648 on tumor cells was examined by measuring inhibitory activity of the metastatic ability of tumor cells, which were inoculated into animals after incubation with TKR2648 for several hours. EL-4 lymphoma or B16 melanoma cells were cultured in RPMI 1640 medium containing 10% of fetal calf serum, and various concentrations of TKR2648 were added to the culture of tumor cells. After overnight culture, cytotoxicity of TKR2648 to the cells was determined by alamarblue-method (Biosource International), and the cells treated with TKR2648 were recovered and injected to C57BL/6 (female) mice via tail vein. Ten days after the injection of EL-4, the mice were sacrified and their livers were obtained and weighed to determine metastasizing tumor cells as increase of weight. Fourteen days after the injection of B16 cells, the mice were scarified and their lungs were obtained and counted metastasizing melanoma colonies. […] This means that TKR2648 may be useful as an anticancer agent by inhibiting metastasis properties of tumor cells without affecting of proliferative properties of tumor cells.

EL-4 lymphoma cells [2] = assay: Inhibition of metastasis of treated EL-4 cells injected into mice (liver weight); format: in vivo, C57BL/6 (female) mice; conditions: for Inhibition of metastasis / Increase of liver weight mean ± SD: ten days after injection; for Increase of liver weight mean ± SD: * p<0.001
Procedure: as §1

B16 melanoma cells [3] = assay: Inhibition of metastasis of treated B16 cells injected into mice (lung colonies); format: in vivo, C57BL/6 (female) mice; conditions: for Inhibition of metastasis / Colony number of melanoma mean ± SD: fourteen days after injection; for Colony number of melanoma mean ± SD: lungs
Procedure: as §1

ICR mice = assay: Toxicity, intraperitoneal administration to mice; format: in vivo; conditions: 50 mg/kg
Solubility = format: physicochemical
EL-4 lymphoma cells [4] = assay: Cytotoxicity to EL-4 lymphoma cells, alamarblue-method; format: cell-based
Procedure: as §1

[5] = system: Candida albicans TIMM0136; assay: Minimal inhibitory concentration, liquid medium dilution method; format: cell-based
Procedure: (§2) The antifungal spectra of the above TKR2648 against various microorganisms were determined. Using the liquid medium dilution method, the concentration causing a substantially complete inhibition of fungal growth was determined as minimal inhibitory concentration (μg/ml). In the table, YNBG stands for a medium comprising 0.67% of yeast nitrogen base (manufactured by Difco) and 1.0% of glucose, and BHI stands for a medium comprising 0.5% of brain-heart infusion bouillon (manufactured by Nihon Pharmaceutical).

Candida kefyr TIMM0301 = assay: as above; format: cell-based
Procedure: as §2

[6] = system: Cryptococcus neoformans TIMM0354; assay: as above; format: cell-based
Procedure: as §2

[7] = system: Aspergillus fumigatus TIMM1776; assay: as above; format: cell-based
Procedure: as §2

[8] = in words, at concentrations inhibiting metastasis
[9] = EL4 cells treated at 0.156 μg/ml
[10] = EL4 cells treated at 0.313 μg/ml
[11] = EL4 cells treated at 0.625 μg/ml
[12] = in words, at the concentrations showing little cytotoxicity
[13] = B16 cells treated at 0.156 μg/ml
[14] = B16 cells treated at 0.625 μg/ml

CCCCC(=O)OC1CC(OC)=CC(=O)O1 (centres unmarked) [TKR2648]
cytotoxicity at 0.156 µg/mL (B16 melanoma cells [1]; Mus musculus, B16, 0.156 μg/ml, overnight culture): 4.5%
cytotoxicity at 0.625 µg/mL (B16 melanoma cells [1]; Mus musculus, B16, 0.625 μg/ml, overnight culture): 14.1%
cytotoxicity at 2.5 µg/mL (B16 melanoma cells [1]; Mus musculus, B16, 2.5 μg/ml, overnight culture): 51.3%
Cytotoxicity (B16 melanoma cells [1]; [8]): little cytotoxicity
Inhibition of metastasis (EL-4 lymphoma cells [2]; [9]): 47.4%
Increase of liver weight mean ± SD (EL-4 lymphoma cells [2]; [9]): 0.630 ± 0.107 g
Inhibition of metastasis (EL-4 lymphoma cells [2]; [10]): 67.4%
Increase of liver weight mean ± SD (EL-4 lymphoma cells [2]; [10]): 0.391 ± 0.148 g
Inhibition of metastasis (EL-4 lymphoma cells [2]; [11]): 89.3%
Increase of liver weight mean ± SD (EL-4 lymphoma cells [2]; [11]): 0.128 ± 0.043 g
Metastasis of EL-4 tumor cells to normal tissues (EL-4 lymphoma cells [2]; [12]): inhibited metastasis
Inhibition of metastasis (B16 melanoma cells [3]; [13]): 9.6%
Colony number of melanoma mean ± SD (B16 melanoma cells [3]; [13]): 58.3 ± 16.3
Inhibition of metastasis (B16 melanoma cells [3]; [14]): 29.7%
Colony number of melanoma mean ± SD (B16 melanoma cells [3]; [14]): 45.3 ± 3.8
Inhibition of metastasis (B16 melanoma cells [3]; B16 cells treated at 2.5 μg/ml): 96.4%
Colony number of melanoma mean ± SD (B16 melanoma cells [3]; B16 cells treated at 2.5 μg/ml, * p<0.001): 2.3 ± 2.3
Metastasis of B16 tumor cells to normal tissues (B16 melanoma cells [3]; [12]): inhibited metastasis
Toxic signs (ICR mice): no toxic signs
Solubility (Solubility; in chloroform): Soluble
Solubility (Solubility; in hexane): practically insoluble; also recorded: sparingly soluble
Solubility (Solubility; in methanol): Soluble
Solubility (Solubility; in water): practically insoluble; also recorded: sparingly soluble
cytotoxicity at 0.156 µg/mL (EL-4 lymphoma cells [4]; Mus musculus, EL4, 0.156 μg/ml, overnight culture): 4.5%
cytotoxicity at 0.313 µg/mL (EL-4 lymphoma cells [4]; Mus musculus, EL4, 0.313 μg/ml, overnight culture): 15.7%
cytotoxicity at 0.625 µg/mL (EL-4 lymphoma cells [4]; Mus musculus, EL4, 0.625 μg/ml, overnight culture): 35.1%
Cytotoxicity (EL-4 lymphoma cells [4]; [8]): little cytotoxicity
MIC ([5]; Candida albicans, TIMM0136, YNBG medium): 100 µg/mL (≈ 438 µM)
Antifungal activity ([5]; in words): active
MIC (Candida kefyr TIMM0301; Kluyveromyces marxianus, TIMM0301, YNBG medium): 50 µg/mL (≈ 219 µM)
Antifungal activity (Candida kefyr TIMM0301; in words): active
MIC ([6]; Cryptococcus neoformans, TIMM0354, YNBG medium): 3.13 µg/mL (≈ 13.7 µM)
Antifungal activity ([6]; in words): active
MIC ([7]; Aspergillus fumigatus, TIMM1776, BHI medium): 6.25 µg/mL (≈ 27.4 µM)
Antifungal activity ([7]; in words): active
